Measured values from US20250340592A1, “MAMMALIAN MILK-DERIVED PEPTIDES WITH ANTIMICROBIAL ACTIVITY” (MATRUBIALS INC., priority 2022, published 2025).
Where no end group is shown, it is not given here.

Assays:
[1] = tested on: L. crispatus; assay: direct kill assay (time-kill, FIG. 8); format: cell-based, Lactobacillus crispatus; conditions: 0.375, 0.75, 1.5 mg/ml peptide, spotted 30 min post incubation
Protocol: (§1) For these peptides, 0.375 mg/ml concentration is sufficient to cause loss of viability of G. vaginalis and L. iners as compared to the absence of peptides. In FIG. 8A, M1-M8 peptides (SEQ ID NOS: 1, 6, 11, 16, 21, 26, 31, and 36) were tested using direct kill assays. Equal inoculums of G. vaginalis, L. iners and L. crispatus were incubated with either water (0.00), or 0.375 mg/ml, 0.75 mg/ml and 1.5 mg/ml. of peptides. Aliquots were spotted 30 minutes (min) post incubation on human blood tween (HBT) bilayer media, Tryptic soy agar (+5% sheep blood) or MRS (de Man, Rogosa, and Sharpe) agar plates respectively. For these peptides, 0.375 mg/ml concentration is sufficient to cause loss of viability of G. vaginalis and L. iners as compared to the absence of peptides.

[2] = tested on: G. vaginalis; assay: direct kill assay (time-kill, FIG. 8); format: cell-based, Gardnerella vaginalis; conditions: 0.375, 0.75, 1.5 mg/ml peptide, spotted 30 min post incubation
Protocol: as §1

[3] = tested on: L. iners; assay: direct kill assay (time-kill, FIG. 8); format: cell-based, Lactobacillus iners; conditions: 0.375, 0.75, 1.5 mg/ml peptide, spotted 30 min post incubation
Protocol: as §1

[4] = tested on: A. baumannii; assay: growth of A. baumannii with peptide (FIG. 17); format: cell-based, Acinetobacter baumannii; conditions: 250 μg/ml peptide, 0.01×MH broth
[5] = tested on: MRSN panel P. aeruginosa strain NR-51553; format: cell-based, Pseudomonas aeruginosa; conditions: 0.5% CMC and 0.01×MH broth
From the text: FIGS. 15A-15B show the growth of P. aeruginosa strain NR-51553 of FIG. 14A in a modified CLSI-based broth dilution assay, in the presence of peptide M16 (SEQ ID NO: 213) in 0.01×MH broth (FIG. 15A) and in the presence of peptide M16 in 0.01×MH broth and 0.5% carboxymethyl cellulose (CMC) (FIG. 15B), where the amount of growth is indicated as: 4 is full growth; 3 is too many colonies to count; 2 is countable colonies; and 1 is no growth.
FIG. 14A indicates sensitive(S) or resistant (R) relative to the listed antibiotic for eight of the more peptide-resistant […] strains of 100 MRSN panel strains (NR-51553, NR-51556, NR-51570, NR51597, NR-51520, NR-51546, NR-51574, and NR-51588). […] CLSI-based method described in CLSI document M07-A10, Vol. 35, No. 2, 2015 (ISBN 1-56238-988-2).

[6] = tested on: S. epidermidis; assay: colony-forming assay, CFU/ml over time (FIG. 10C); format: cell-based, Staphylococcus epidermidis; conditions: peptide 0.5% (5 mg/ml), 0.8% NaCl, T=0 up to 60 minutes
From the text: (§2) FIGS. 10A, 10B, and 10C are graphs depicting bacterial viability in colony forming units (CFU) per milliliter (ml) over time (minutes) in the presence of select polypeptides: SEQ ID NO: 26 (M6); SEQ ID NO: 31 (M7); SEQ ID NO: 177 (M14); SEQ ID NO: 213 (M16); and SEQ ID NO: 291 (M22) in comparison to Indolicidin (IND) in the presence of P. aeruginosa (FIG. 10A), S. aureus MRSA (FIG. 10B), and S. epidermidis (FIG. 10C), respectively.
(§3) In FIGS. 10A, 10B, and 10C, quantitative colony-forming units/ml were assayed using the indicated peptides at a final concentration of 0.5% (5 mg/ml). For this colony-forming assay, peptides were incubated with indicated bacterial strains in 0.8% NaCl, and aliquots were removed starting time T=0, up to 60 minutes, followed by serial dilution and plating on Tryptic soy agar plates for overnight incubation, and enumeration of CFU/ml.

[7] = tested on: P. aeruginosa; assay: colony-forming assay, CFU/ml over time (FIG. 10A); format: cell-based, Pseudomonas aeruginosa; conditions: peptide 0.5% (5 mg/ml); for sensitivity of P. aeruginosa to peptide (CFU/ml): 0.8% NaCl, T=0 up to 60 minutes; for sensitivity of P. aeruginosa to peptide as compared to Indolicidin: after 20 minutes
From the text: as §2, §3

[8] = tested on: A. baumannii; assay: direct kill assay of formulated peptide (FIG. 12D); format: cell-based, Acinetobacter baumannii; conditions: 0.5% peptide in 20% propylene glycol and 2% hydroxypropyl cellulose, 0-60 min
Protocol: (§4) FIGS. 12A, 12B, 12C, and 12D depict the retention of antimicrobial activity of the indicated peptides M6 (SEQ ID NO: 26), M14 (SEQ ID NO:177), M16 (SEQ ID NO: 213) and M22 (SEQ ID NO: 291), with each peptide formulated in a composition with 20% propylene glycol and 2% hydroxypropyl cellulose (F is the formulation without a peptide), in the presence of G. vaginalis (FIG. 12A), L. iners (FIG. 12B), L. crispatus (FIG. 12C), or A. baumannii (FIG. 12D), from 0 minutes (min) to 60 minutes, as indicated, where the amount of growth is indicated as: 4 is full growth; 3 is too many colonies to count; 2 is countable colonies; and 1 is no growth.
In FIGS. 12A, 12B, 12C, and 12D, the impact of the formulation comprising 20% propylene glycol and 2% hydroxypropyl cellulose and 0.5% by weight of peptide M6 (SEQ ID NO: 26), M7 (SEQ ID NO: 31), M14 (SEQ ID NO: 177), M16 (SEQ ID NO: 213), or M22 (SEQ ID NO: 291) was tested in a direct kill assay as described herein.

[9] = tested on: S. aureus MRSA; assay: colony-forming assay, CFU/ml over time (FIG. 10B); format: cell-based, Staphylococcus aureus; conditions: peptide 0.5% (5 mg/ml); for sensitivity of S. aureus to peptide (CFU/ml): 0.8% NaCl, T=0 up to 60 minutes; for sensitivity of S. aureus MRSA to peptide as compared to Indolicidin: after 20 minutes
From the text: as §2, §3

[10] = tested on: S. aureus MRSA; assay: direct kill assay of formulated peptide (FIG. 13); format: cell-based, Staphylococcus aureus; conditions: 0.5% by weight peptide in 20% propylene glycol and 2% hydroxypropyl cellulose
Protocol: as §4, with “FIG. 13 depicts” for “FIGS. 12A, 12B, 12C, and 12D depict”, “S. aureus MRSA,” for “G. vaginalis (FIG. 12A), L. iners (FIG. 12B), L. crispatus (FIG. 12C), or A. baumannii (FIG. 12D),”
In FIG. 13, the impact of the formulation comprising 20% propylene glycol and 2% hydroxypropyl cellulose and 0.5% by weight of peptide M6 (SEQ ID NO: 26), M7 (SEQ ID NO: 31), M14 (SEQ ID NO: 177), M16 (SEQ ID NO: 213), or M22 (SEQ ID NO: 291) was tested using a direct kill assay.

[11] = tested on: P. aeruginosa; assay: time-kill assays (FIG. 9); format: cell-based, Pseudomonas aeruginosa; conditions: as compared to M1-M5
Protocol: FIG. 9. depicts the antibiotic activity (in concentration of polypeptide at 0.375 mg/ml (****), 0.75 mg/ml (***), 1.5 mg/ml (**), or 3 mg/ml (*), as indicated) for each of polypeptides (SEQ ID NO: 1 (M1); SEQ ID NO: 6 (M2); SEQ ID NO: 11 (M3); SEQ ID NO: 16 (M4); SEQ ID NO: 21 (M5); SEQ ID NO: 26 (M6); SEQ ID NO: 31 (M7); SEQ ID NO: 36 (M8); SEQ ID NO: 41 (M9); SEQ ID NO: 76 (M10); SEQ ID NO: 106 (M11); SEQ ID NO: 141 (M12); SEQ ID NO: 142 (M13); SEQ ID NO: 177 (M14); SEQ ID NO:178 (M15); SEQ ID NO: 213 (M16); SEQ ID NO: 219 (M18), SEQ ID NO: 220 (M19); SEQ ID NO: 256 (M21); and SEQ ID NO: 291 (M22)) against P. aeruginosa and S. aureus MRSA, as indicated.
In FIG. 9, the bacterial pathogens P. aeruginosa and S. aureus—associated with skin, burn and wound infections were tested.

[12] = tested on: EpiVaginal tissue model (Mattek); format: cell-based
Protocol: Table 2 below show the results of peptides M6 (SEQ ID NO: 26) and M14 (SEQ ID NO: 177) were assayed for their impact on vaginal irritation using the Epi Vaginal model to determine the exposure time to decrease the tissue viability to 50% (ET50) in EpiVaginal™ tissue model (Mattek). In brief, after exposure to the M6 and M14 peptides at 20 mg/ml final concentration for various times, toxicity was determined by measuring the relative conversion of MTT (3-(4,5-dimethylthiazol-2-yl)-2,5-dephenyltetrazolium bromide) in the vaginal tissue samples treated with peptide compared to tissues treated with a solvent negative control. Positive control was Triton-X-100 at 1% final concentration.

GKRKPVTRAR (Synthetic: M2)
polypeptides target L. crispatus (time-kill images) [1]: not L. crispatus
polypeptides target G. vaginalis (time-kill images) [2]: target
polypeptides target L. iners (time-kill images) [3]: target

HKYAVRVVKK [M16, HKYAVRVVKK]
efficacy on A. baumannii, M16 at 4 hours compared to M14 at 24 hours [4]: more efficacious
minimal bactericidal concentration (MBC) [5]: 15 µg/mL
sensitivity of S. epidermidis to peptide (CFU/ml) [6]: also sensitive
sensitivity of P. aeruginosa to peptide (CFU/ml) [7]: particularly sensitive
sensitivity of P. aeruginosa to peptide as compared to Indolicidin [7]: more sensitive
sensitivity of growth of A. baumannii, as compared to M22 [8]: more sensitive
sensitivity of S. aureus to peptide (CFU/ml) [9]: also sensitive
sensitivity of S. aureus MRSA to peptide as compared to Indolicidin [9]: more sensitive
antibacterial activity against S. aureus MRSA in formulation [10]: retains antibacterial activity

HQKMAKPWTQ (Synthetic: M4)
polypeptides target L. crispatus (time-kill images) [1]: not L. crispatus
polypeptides target G. vaginalis (time-kill images) [2]: target
polypeptides target L. iners (time-kill images) [3]: target

HYYAVAVVK (Synthetic: M22)
antibacterial activity against S. aureus MRSA in formulation [10]: retains antibacterial activity
time from which viability of S. aureus MRSA is reduced [10]: 0 min

KTPKAVNKCR (Synthetic: M8)
polypeptides target L. crispatus (time-kill images) [1]: not L. crispatus
polypeptides target G. vaginalis (time-kill images) [2]: target
effectiveness in reducing the viability of P. aeruginosa [11]: more effective
polypeptides target L. iners (time-kill images) [3]: target

NTNRPRTKRA (Synthetic: M5)
polypeptides target L. crispatus (time-kill images) [1]: not L. crispatus
polypeptides target G. vaginalis (time-kill images) [2]: target
polypeptides target L. iners (time-kill images) [3]: target

PKVERRPRPR (Synthetic: M1)
polypeptides target L. crispatus (time-kill images) [1]: not L. crispatus
polypeptides target G. vaginalis (time-kill images) [2]: target
polypeptides target L. iners (time-kill images) [3]: target

PVPQKVRPQR (Synthetic: M7)
polypeptides target L. crispatus (time-kill images) [1]: not L. crispatus
polypeptides target G. vaginalis (time-kill images) [2]: target
sensitivity of S. epidermidis to peptide (CFU/ml) [6]: also sensitive
sensitivity of P. aeruginosa to peptide (CFU/ml) [7]: particularly sensitive
sensitivity of P. aeruginosa to peptide as compared to Indolicidin [7]: more sensitive
sensitivity of S. aureus to peptide (CFU/ml) [9]: also sensitive
sensitivity of S. aureus MRSA to peptide as compared to Indolicidin [9]: more sensitive
effectiveness in reducing the viability of P. aeruginosa [11]: more effective
polypeptides target L. iners (time-kill images) [3]: target
antibacterial activity against S. aureus MRSA in formulation [10]: retains antibacterial activity

QHQKAKKPWT (Synthetic: M3)
polypeptides target L. crispatus (time-kill images) [1]: not L. crispatus
polypeptides target G. vaginalis (time-kill images) [2]: target
polypeptides target L. iners (time-kill images) [3]: target

RGPPKSCRKRD [M14, RGPPKSCRKRD]
ET50 [12]: >24 h

RPRIPKASAK [M6, RPRIPKASAK]
ET50 [12]: >24 h

RQPRTHKYAVRVVKK (Synthetic: M15)
effectiveness in reducing the viability of P. aeruginosa [11]: more effective

Triton-X-100 [reference compound]
ET50 [12]: 1.55 h
